The values that follow come from patent EP3095872A1, “A METHOD OF PRODUCING ALPHA AMINO ACIDS” (Evonik Degussa GmbH, priority 2015, dated 2016).

The test system of data set [1] is P450Cla. Briefly: alpha-hydroxylation of selected fatty acids, catalytic and kinetic characterization of P450Cla. In kind it is biochemical. The conditions noted are these: for Product: 10 mM fatty acid, 0.5 µM P450Cla (C10), 1 µM (C8, C6), Tris-HCl pH 7.5, RT, triplicate; for specific activity U mg^-1: P450Cla 48 kDa, values only relevant at initial rate; for Coupling*: mol product per mol H2O2. As for the experimental part: Hydroxylation of selected fatty acids was carried out using a fresh preparation of purified P450Cla. P450Cla was characterised for key catalytic parameters specific activities were determined for three selected substrates as shown in Table 1. Table 1: Catalytic and kinetic characterization of P450Cla for conversion of 10 mM of selected fatty acids. All reactions were performed in triplicate.
Conditions: 0.5 µM P450Cla used in reactions with C10; 1 µM P450Cla used in reactions with C8 and C6; All reactions were performed in Tris-HCl (pH 7.5, 0.1 M) at RT and 170 rpm shaking in closed glass vials; *molProduct^-1 molH2O2^-1; ^§molecular weight of P450Cla is 48 kDa, values only relevant at initial rate.

Data set [2] relates to P450Cla. In words: preparative scale conversion of decanoic acid with P450Cla. In kind it is biochemical. The note with it: 20 mM decanoic acid; 4 µM P450Cla; 32 mM H2O2 in total; 24 h. As for the experimental part: Synthesis of 2-hydroxydecanoic acid was done in 10 ml Tris-HCl (pH 7.5; 0.1 M) employing 4µM P450Cla, 20 mM decanoic acid (38.8 mg of the sodium salt) and 2.5 % EtOH (RT, 170 rpm shaking). Hydrogen peroxide (1.6 mM) was added every 30 min (20 times; in total 32 mM) to the reaction mixture. After 24 h reaction time, 1 ml 5 N HCl was added to stop the reaction. Product extraction was repeated five times using 5 ml EtOAc prior to purification by silica chromatography column using EtOAc/petroleum ether/acetic acid as mobile phase (80:20:1.2). Fractions containing the desired product were combined and concentrated by evaporation under reduced pressure. With the present set up, 16 mg of 2-hydroxydecanoic acid (46 % isolated yield, TTNP450 ∼ 3040) was isolated which was confirmed by GC-MS, 1 H- and 13C-NMR (Figure 1).

A further data set deals with HICDH-proteins. Briefly: spectrophotometric monitoring (340 nm) and GC-FID of HICDH oxidation and reduction. In kind it is biochemical.
The test system of data set [3] is P450Cla. In words: conversion of fatty acid substrates 1a-d with P450Cla, oxidant H2O2. The note with it: 3 µM P450Cla, 24 h, RT, values marked a based on substrate depletion. In kind it is biochemical. As for the experimental part:
P450Cla was ordered as synthetic gene and cloned into the pET28a expression vector. […] The dialysis buffer was supplemented with 300 mM NaCl to prevent precipitation of P450Cla. Next, hydroxylation of fatty acid substrates 1a-d (scheme 2) was performed employing purified P450Cla and P450BSß. The oxidant source was varied in case of P450Cla while only H2O2 was used with P450BSß.
Reaction conditions for P450Cla: 3µM P450Cla; Tris-HCl (pH 7.5; 0.1 M); 2.5 to 5 % EtOH (cosolvent for the substrate).
All reactions were performed in closed glass vials for 24 h reaction time at RT with 170 rpm shaking. The reactions were quenched by addition of 100 µl 5 N HCl. Extractions were performed with 500 µl EtOAc containing 0.1 % 1-decanol as internal standard. After drying over Na2SO4, derivatization of acids to corresponding methyl esters was realized by mixing 150 µl of organic phase with 90µl of MeOH prior to supplementation of 20 µl of TMSCHN2 for esterification. Samples were analyzed by GC-FID and GC-MS. Commercial standards of 2-hydroxycaproic acid (2a), 2-hydroxyoctanoic acid (2b) and 2-oxooctanoic acid (4b) were used as references. Calibration curves were obtained from standards 1a-d and 2a-b prepared identically to the reaction mixtures (5 concentration points from 10 µM to 1 mM).

For another data set, the system named is P450Cla+CamAB. In words: conversion of fatty acid substrate with P450Cla+CamAB, oxidant O2 + NADPH. The conditions noted are these: 10 mM substrate, % of the product area of the reaction with H2O2 and 10 mM 1d. It is filed as biochemical. As for the experimental part:
(§1) P450BSß was expressed and purified as described in Matsunaga et al. 2001. P450Cla was ordered as synthetic gene and cloned into the pET28a expression vector. Efficient expression of P450Cla was obtained by applying the expression protocol (TBmedia, 20 h, 30 °C) as described in Nazor et al. (2008) under heading 'shake flask expression of P450 BM3'. Purification was performed according to the published protocol (Girhard M., et al, 2007) with minor alterations as (unreported) precipitation of P450Cla during dialysis occured. The dialysis buffer was supplemented with 300 mM NaCl to prevent precipitation of P450Cla. Next, hydroxylation of fatty acid substrates 1a-d (scheme 2) was performed employing purified P450Cla and P450BSß. The oxidant source was varied in case of P450Cla while only H2O2 was used with P450BSß. Table 2: Conversion of fatty acid substrates 1a-d with P450Cla and CYPBSß
(§2) All reactions were performed in closed glass vials for 24 h reaction time at RT with 170 rpm shaking. The reactions were quenched by addition of 100 µl 5 N HCl. Extractions were performed with 500 µl EtOAc containing 0.1 % 1-decanol as internal standard. After drying over Na2SO4, derivatization of acids to corresponding methyl esters was realized by mixing 150 µl of organic phase with 90µl of MeOH prior to supplementation of 20 µl of TMSCHN2 for esterification. Samples were analyzed by GC-FID and GC-MS. […]

The subject of data set [4] is P450Cla. In words: conversion of fatty acid substrate with P450Cla, oxidant O2 + NADPH. The note with it: 10 mM substrate, without CamAB. It is filed as biochemical. As for the experimental part:
as §1, §2

The target of the next data set is T1, P450 BM3 variant M2 (Priestia megaterium, UniProt P14779, I402M/R48S/Y52W).
T1 construct: made in house; host or cells: E. coli BL21 Gold (DE3)-derived E. coli lacIQ1 Gold (DE3)
T1 sequence (P14779 whole entry R48S/Y52W/I402M): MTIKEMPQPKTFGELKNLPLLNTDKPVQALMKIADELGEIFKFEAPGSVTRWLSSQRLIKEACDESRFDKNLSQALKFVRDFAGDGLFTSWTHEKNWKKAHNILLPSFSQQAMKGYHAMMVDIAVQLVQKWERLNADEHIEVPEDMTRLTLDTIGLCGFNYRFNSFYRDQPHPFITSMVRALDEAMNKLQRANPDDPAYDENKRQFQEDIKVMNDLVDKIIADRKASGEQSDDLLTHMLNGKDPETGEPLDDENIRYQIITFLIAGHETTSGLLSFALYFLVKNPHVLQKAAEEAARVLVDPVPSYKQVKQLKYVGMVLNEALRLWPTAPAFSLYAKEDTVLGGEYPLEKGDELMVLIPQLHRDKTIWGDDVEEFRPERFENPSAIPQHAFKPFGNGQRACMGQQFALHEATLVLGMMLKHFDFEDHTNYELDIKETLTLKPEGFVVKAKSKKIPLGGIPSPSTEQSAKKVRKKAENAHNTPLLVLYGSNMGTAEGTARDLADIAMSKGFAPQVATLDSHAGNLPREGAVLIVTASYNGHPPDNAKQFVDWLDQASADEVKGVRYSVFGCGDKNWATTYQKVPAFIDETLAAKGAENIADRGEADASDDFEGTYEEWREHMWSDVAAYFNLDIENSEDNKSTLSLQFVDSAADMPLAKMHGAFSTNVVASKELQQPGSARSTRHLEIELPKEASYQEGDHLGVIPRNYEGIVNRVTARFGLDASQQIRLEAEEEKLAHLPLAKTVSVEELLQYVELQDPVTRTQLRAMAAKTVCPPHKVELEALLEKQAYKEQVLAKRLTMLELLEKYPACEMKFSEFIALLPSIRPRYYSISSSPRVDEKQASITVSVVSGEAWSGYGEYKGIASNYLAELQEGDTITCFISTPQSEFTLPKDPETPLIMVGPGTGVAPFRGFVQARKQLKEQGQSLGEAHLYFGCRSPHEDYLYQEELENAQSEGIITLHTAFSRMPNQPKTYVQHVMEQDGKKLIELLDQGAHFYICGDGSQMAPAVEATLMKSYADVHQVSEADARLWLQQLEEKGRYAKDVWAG
In kind it is biochemical, Bacillus megaterium. The conditions noted are these: 50 mM substrate; O2 as oxidant; GDH/glucose NADPH regeneration; absent in control reactions. As for the experimental part: Ethyl acetoxy-butanoate (EAB) was converted with P450 BM3 variant M2 employing O2 as oxidant.
The essential NADPH cofactor was regenerated using a glucose dehydrogenase (GDH) and glucose as shown in Scheme 3. [drawing 4]
Reactions were done in 1 mL scale (KPi-buffer, pH 7.5, 0.1 M) containing following components: • 12 U GDH • 100 mM glucose • 400 µM NADP+ • 50 mM EBA (substrate) in DMSO (5 % V/V DMSO final) • 50 mg cell free freeze dried lysate of P450 BM3 variant M2
For analysis, 100 µl of the reaction volume were mixed with 100 µl acetonitrile followed by centrifugation to remove insoluble particles. The supernatant was diluted 1:50 in H2O/acetonitrile (50:50; V/V) followed by injection into the LC-MS.
In addition, the product peaks elute earlier than the substrate (3.699 min) indicating a higher polarity possibly due to a hydroxylation of EAB.

Like-named read-outs stand apart in the source and are kept apart here. Marks after values point to notes of the source that are not given here.

Take `CCCCCCCCCC(=O)O` [Substrate C10, decanoic acid]: in the data set with P450Cla [1], the “Selectivity [% α-OH]” value is more than 90% and the specific activity is reported as not below 1 U mg^-1. Besides, in the data set with P450Cla [1] (5 min, H2O2 0.8 mM), the Product was determined as 0.67 ± 0.04 mM, the “Selectivity [% α-OH]” value is given as more than 95%, the TON is 266 min⁻¹ and the TTN was found to be 1330. Further, in the data set with P450Cla [1] (5 min, H2O2 0.8 mM), the “specific activity U mg^-1” value was determined as 5.5 U mg^-1 and the “Coupling*” value turned out to be 83%. Further, in the data set on P450Cla [1] (15 min, H2O2 0.8 mM), the Product was found to be 0.6 ± 0.02 mM, the “Selectivity [% α-OH]” value was more than 95%, the TON is 80 min⁻¹ and the TTN is given as 1207. Further, in the data set on P450Cla [1] (15 min, H2O2 0.8 mM), the “specific activity U mg^-1” value was determined as 1.7 U mg^-1 and the “Coupling*” value came to 75%. Also, in the data set on P450Cla [1] (30 min, H2O2 1.6 mM), the Product turned out to be 1.2 ± 0.06 mM, the “Selectivity [% α-OH]” value is more than 95%, the TON amounted to 80 min⁻¹ and the TTN turned out to be 2406. In the data set on P450Cla [1] (30 min, H2O2 1.6 mM), the “specific activity U mg^-1” value is recorded as 1.7 U mg^-1 and the “Coupling*” value was 75%. The compound further registered a TTNP450 in the data set on P450Cla [2] of approximately 3040.
`CCCCCCC(=O)C(=O)O` [Substrate 4b, 2-oxooctanoic acid]: in the data set on HICDH-proteins, the “Reduction to 2-hydroxy octanoic acid 2b (GC-FID)” value is on record as “confirmed”.
`CCCCCCCCCCCC(=O)O` [Substrate 1d, dodecanoic acid]: the Conversion is listed as >99^a % in the data set with P450Cla [3] (5 mM substrate, H2O2 9.6 mM total); >99^a % with P450Cla [3] (10 mM substrate, H2O2 19.2 mM total); 5^b % in the data set with P450Cla+CamAB; 0% with P450Cla [4].
For the compound Ethyl acetoxy-butanoate [EAB], the “products of mass 190.08+1 (LC-MS)” value on P450 BM3 variant M2 is “formation of two product peaks”.
